Assays:
Type in all cases: in vivo
[1] = system: common ragweed (Ambrosia elatior); test: Test C preemergence
Summary of the method: (§1)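 Test chemicals, formulated in a non-phytotoxic solvent mixture with surfactant, were applied preemergence to planted seeds or postemergence to plants 2 to 18 cm tall (1- to 4-leaf stage). After 12 to 14 days in a greenhouse, injury was visually rated against untreated controls on a 0–100 scale.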

[2] = system: woolly cupgrass (Eriochloa villosa); test: Test C preemergence; conditions: for Plant response rating (0 to 100), Cupgrass, Woolly: visual evaluation after 12 to 14 days
Summary of the method: as §1

Nightshade = test: Test C preemergence
[3] = system: pigweed (Amaranthus retroflexus); test: Test C preemergence; conditions: for Plant response rating (0 to 100), Pigweed: visual evaluation after 12 to 14 days
Summary of the method: as §1

[4] = system: cocklebur (Xanthium strumarium); test: Test C preemergence; conditions: for Plant response rating (0 to 100), Cocklebur: visual evaluation after 12 to 14 days
Summary of the method: as §1

soybean (Glycine max) = test: Test C preemergence; conditions: for Plant response rating (0 to 100), Soybean: visual evaluation after 12 to 14 days
Summary of the method: as §1

[5] = system: lambsquarters (Chenopodium album); test: Test C preemergence; conditions: for Plant response rating (0 to 100), Lambsquarters: visual evaluation after 12 to 14 days
Summary of the method: as §1

[6] = system: goosegrass (Eleusine indica); test: Test C preemergence; conditions: for Plant response rating (0 to 100), Goosegrass: visual evaluation after 12 to 14 days
Summary of the method: as §1

[7] = system: crabgrass (Digitaria sanguinalis); test: Test C preemergence; conditions: for Plant response rating (0 to 100), Crabgrass: visual evaluation after 12 to 14 days
Summary of the method: as §1

[8] = system: Surinam grass (Brachiaria decumbens); test: Test C preemergence; conditions: for Plant response rating (0 to 100), Surinam grass: visual evaluation after 12 to 14 days
Summary of the method: as §1

[9] = system: barnyardgrass (Echinochloa crus-galli); test: Test B preemergence
Summary of the method: (§2)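 Pre: seeded pots sprayed, chemical in non-phytotoxic solvent/surfactant mix. Post: plants 2–18 cm, 1–4 leaf, same formulation. Greenhouse 13–15 d; visual % control vs untreated, 0–100 scale.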

[10] = system: morning glory (Ipomoea hederacea); test: Test B preemergence
Summary of the method: as §2

rice (Oryza saliva) = test: Test B preemergence
Summary of the method: as §2

[11] = system: pigweed (Amaranthus retroflexus); test: Test B preemergence
Summary of the method: as §2

[12] = system: cocklebur (Xanthium strumarium); test: Test B preemergence
Summary of the method: as §2

corn (Zea mays) = test: Test B preemergence
Summary of the method: as §2

[13] = system: crabgrass (Digitaria sanguinalis); test: Test B preemergence
Summary of the method: as §2

[14] = system: velvetleaf (Abutilon theophrasti); test: Test B preemergence
Summary of the method: as §2

[15] = system: giant foxtail (Setaria faberii); test: Test B preemergence
Summary of the method: as §2

[16] = system: Surinam grass (Brachiaria decumbens); test: Test B preemergence
Summary of the method: as §2

[17] = Rate 125 g/ha, scale 0 to 100, 0 no effect, 100 complete control
[18] = preemergence, Rate 62 g/ha, scale 0 to 100
[19] = preemergence, Rate 250 g/ha, scale 0 to 100, 0 no effect, 100 complete control
[20] = Preemergence, Rate 500 g/ha, scale 0 to 100, 0 no effect, 100 complete control
[21] = preemergence, Rate 125 g/ha, scale of 0 to 100 where 0 is no effect and 100 is complete control, 13 to 15 days
[22] = Preemergence, Rate 500 g/ha, scale 0 to 100
[23] = Rate 62 g/ha, scale 0 to 100, 0 no effect, 100 complete control
[24] = preemergence, Rate 125 g/ha, scale 0 to 100, 0 no effect, 100 complete control

Question: What does the source list for `CCC(CC)c1ccn(C2CCN(c3cccc(OC(C)C)c3)C2=O)n1` (centres unmarked) [Compound 84]?
Answer: Plant response rating, Ragweed, Common [1, 17]: 0; Plant response rating, Ragweed, Common [1, 18]: 0; Plant response rating (0 to 100), Ragweed, Common ([1]; preemergence, Rate 500 g/ha, visual evaluation after 12 to 14 days): 0; Plant response rating, Ragweed, Common [1, 19]: 0; Plant response rating, Cupgrass, Woolly [2, 17]: 90; Plant response rating, Cupgrass, Woolly [2, 18]: 60; Plant response rating (0 to 100), Cupgrass, Woolly ([2]; preemergence, Rate 250 g/ha): 90; Plant response rating (0 to 100), Cupgrass, Woolly ([2]; preemergence, Rate 500 g/ha): 100; Plant response rating, Nightshade (Nightshade; Rate 62 g/ha, scale 0 to 100): 30; Plant response rating, Nightshade (Nightshade; Rate 125 g/ha; scale 0 to 100, 0 no effect, 100 complete control): 50; Plant response rating, Nightshade (Nightshade; Rate 250 g/ha, scale 0 to 100, 0 no effect, 100 complete control): 100; Plant response rating, Pigweed [3, 17]: 0; Plant response rating, Pigweed [3, 18]: 90; Plant response rating (0 to 100), Pigweed ([3]; preemergence, Rate 500 g/ha): 90; Plant response rating, Pigweed [3, 19]: 100; Plant response rating, Cocklebur [4, 17]: 0; Plant response rating, Cocklebur [4, 18]: 0; Plant response rating (0 to 100), Cocklebur ([4]; preemergence, Rate 250 g/ha): 0; Plant response rating (0 to 100), Cocklebur ([4]; preemergence, Rate 500 g/ha): 0; Plant response rating, Soybean (soybean (Glycine max); [17]): 0; Plant response rating, Soybean (soybean (Glycine max); [18]): 0; Plant response rating (0 to 100), Soybean (soybean (Glycine max); preemergence, Rate 500 g/ha): 0; Plant response rating, Soybean (soybean (Glycine max); [19]): 0; Plant response rating, Lambsquarters [5, 17]: 100; Plant response rating, Lambsquarters [5, 18]: 100; Plant response rating (0 to 100), Lambsquarters ([5]; preemergence, Rate 500 g/ha): 100; Plant response rating, Lambsquarters [5, 19]: 100; Plant response rating, Goosegrass [6, 17]: 80; Plant response rating, Goosegrass [6, 18]: 20; Plant response rating (0 to 100), Goosegrass ([6]; preemergence, Rate 250 g/ha): 90; Plant response rating (0 to 100), Goosegrass ([6]; preemergence, Rate 500 g/ha): 100; Plant response rating, Crabgrass [7, 17]: 100; Plant response rating, Crabgrass [7, 18]: 90; Plant response rating (0 to 100), Crabgrass ([7]; preemergence, Rate 250 g/ha): 100; Plant response rating (0 to 100), Crabgrass ([7]; preemergence, Rate 500 g/ha): 100; Plant response rating, Surinam grass [8, 17]: 0; Plant response rating, Surinam grass [8, 18]: 0; Plant response rating (0 to 100), Surinam grass ([8]; preemergence, Rate 250 g/ha): 30; Plant response rating (0 to 100), Surinam grass ([8]; preemergence, Rate 500 g/ha): 80; Plant response rating, Barnyardgrass [9, 20]: 100; Plant response rating, Barnyardgrass [9, 21]: 100; Plant response rating, Morningglory [10, 20]: 0; Plant response rating, Morningglory [10, 21]: 0; Plant response rating, Rice (rice (Oryza saliva); [20]): 100; Plant response rating, Rice (rice (Oryza saliva); [21]): 0; Plant response rating, Pigweed [11, 20]: 100; Plant response rating, Pigweed [11, 21]: 100; Plant response rating, Cocklebur [12, 20]: 0; Plant response rating, Cocklebur [12, 21]: 0; Plant response rating, Corn (corn (Zea mays); [20]): 20; Plant response rating, Corn (corn (Zea mays); [21]): 0; Plant response rating, Crabgrass [13, 20]: 100; Plant response rating, Crabgrass [13, 21]: 100; Plant response rating, Velvetleaf [14, 20]: 0; Plant response rating, Velvetleaf [14, 21]: 0; Plant response rating, Foxtail, Giant [15, 20]: 100; Plant response rating, Foxtail, Giant [15, 21]: 100; Plant response rating, Surinam grass [16, 20]: 100; Plant response rating, Surinam grass [16, 21]: 80

Question: Which results are given for `CCC(C)c1ccn(C2SCN(c3cccc(C(F)(F)F)c3)C2=O)n1` (centres unmarked) [Compound 20]?
Answer: Plant response rating, Cupgrass, Woolly [2, 22]: 100; Plant response rating, Cupgrass, Woolly [2, 23]: 0; Plant response rating (0 to 100), Cupgrass, Woolly ([2]; preemergence, Rate 250 g/ha): 90; Plant response rating, Cupgrass, Woolly [2, 24]: 50; Plant response rating, Nightshade (Nightshade; Rate 62 g/ha; scale 0 to 100, 0 no effect, 100 complete control): 30; Plant response rating, Nightshade (Nightshade; [17]): 70; Plant response rating, Nightshade (Nightshade; Rate 500 g/ha, scale 0 to 100): 90; Plant response rating, Pigweed [3, 22]: 60; Plant response rating, Pigweed [3, 23]: 0; Plant response rating (0 to 100), Pigweed ([3]; preemergence, Rate 250 g/ha): 100; Plant response rating, Pigweed [3, 24]: 30; Plant response rating, Cocklebur [4, 22]: 50; Plant response rating, Cocklebur [4, 23]: 0; Plant response rating (0 to 100), Cocklebur ([4]; preemergence, Rate 250 g/ha): 0; Plant response rating, Cocklebur [4, 24]: 0; Plant response rating, Soybean (soybean (Glycine max); [22]): 60; Plant response rating, Soybean (soybean (Glycine max); [23]): 0; Plant response rating (0 to 100), Soybean (soybean (Glycine max); preemergence, Rate 250 g/ha): 60; Plant response rating, Soybean (soybean (Glycine max); [24]): 0; Plant response rating, Lambsquarters [5, 22]: 100; Plant response rating, Lambsquarters [5, 23]: 90; Plant response rating (0 to 100), Lambsquarters ([5]; preemergence, Rate 250 g/ha): 100; Plant response rating, Lambsquarters [5, 24]: 100; Plant response rating, Goosegrass [6, 22]: 100; Plant response rating, Goosegrass [6, 23]: 80; Plant response rating (0 to 100), Goosegrass ([6]; preemergence, Rate 250 g/ha): 100; Plant response rating, Goosegrass [6, 24]: 100; Plant response rating, Crabgrass [7, 22]: 100; Plant response rating, Crabgrass [7, 23]: 0; Plant response rating (0 to 100), Crabgrass ([7]; preemergence, Rate 250 g/ha): 100; Plant response rating, Crabgrass [7, 24]: 100; Plant response rating, Surinam grass [8, 22]: 40; Plant response rating, Surinam grass [8, 23]: 0; Plant response rating (0 to 100), Surinam grass ([8]; preemergence, Rate 250 g/ha): 0; Plant response rating, Surinam grass [8, 24]: 0; Plant response rating, Barnyardgrass [9, 20]: 100; Plant response rating, Barnyardgrass [9, 24]: 0; Plant response rating, Morningglory [10, 20]: 0; Plant response rating, Morningglory [10, 24]: 0; Plant response rating, Rice (rice (Oryza saliva); [20]): 0; Plant response rating, Rice (rice (Oryza saliva); [24]): 0; Plant response rating, Pigweed [11, 20]: 100; Plant response rating, Pigweed [11, 24]: 0; Plant response rating, Cocklebur [12, 20]: 0; Plant response rating, Cocklebur [12, 24]: 0; Plant response rating, Corn (corn (Zea mays); [20]): 0; Plant response rating, Corn (corn (Zea mays); [24]): 0; Plant response rating, Crabgrass [13, 24]: 0; Plant response rating, Velvetleaf [14, 20]: 0; Plant response rating, Velvetleaf [14, 24]: 0; Plant response rating, Foxtail, Giant [15, 20]: 100; Plant response rating, Foxtail, Giant [15, 24]: 70; Plant response rating, Surinam grass [16, 20]: 0; Plant response rating, Surinam grass [16, 24]: 0

— US7138361B2, “Herbicidal heterocycles” (E. I. du Pont de Nemours and Company, priority 2000, dated 2006)
